Consider 2 compounds from publication PMC5791972 (PLoS ONE, 2018).

For experiment [1], the target named is T1, tyrosine hydroxylase (Rattus norvegicus, UniProt P04177).
T1 construct: rat striatum; from tissue; host or cells: rat striatum
The experiment can be described thus: enzyme assay. It is filed as biochemical. Particulars: 1.0E-06 M.

In experiment [2] the test system is C57BL/6 (CSD) mice. The experiment is described as follows: Chronic social defeat and fear learning and memory. It is filed as in vivo, mouse. The following applies: 1 mg/kg oral.
Experiment [3] has as its system TNF-α (h). It is filed as binding, human. The following applies: 1.0E-06 M.
Experiment [4] deals with AMPA. It is filed as binding, rat. Particulars: 1.0E-06 M.
The target in experiment [5] is T2, motilin (h) (Homo sapiens, UniProt O43193).
T2 construct: host or cells: CHO cells
It is filed as binding.

The target in experiment [6] is T3, CysLT1 (LTD4) (h) (Homo sapiens, UniProt Q9Y271).
T3 construct: host or cells: CHO cells
T3 sequence (Q9Y271 1-337): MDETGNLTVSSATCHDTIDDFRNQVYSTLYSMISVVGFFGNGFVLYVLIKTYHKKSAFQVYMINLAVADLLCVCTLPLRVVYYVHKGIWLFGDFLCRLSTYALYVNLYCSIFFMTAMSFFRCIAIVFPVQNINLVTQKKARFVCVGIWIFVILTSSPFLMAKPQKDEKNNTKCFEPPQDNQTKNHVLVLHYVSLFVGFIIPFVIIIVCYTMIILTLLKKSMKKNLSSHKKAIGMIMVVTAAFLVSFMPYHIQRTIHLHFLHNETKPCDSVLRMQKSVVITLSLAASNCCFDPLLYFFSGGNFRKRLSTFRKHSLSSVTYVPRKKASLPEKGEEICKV
It is filed as binding. The following applies: 1.0E-06 M.

Experiment [7] addresses T4, NK1 (h) (Homo sapiens, UniProt P25103).
T4 construct: (endogenous); host or cells: U-373MG cells
It is filed as binding. The following applies: 1.0E-06 M.

For experiment [8], the target named is PDE4D2 (h) (Homo sapiens, UniProt Q08499). The experiment can be described thus: biochemical. Particulars: 1.0E-06 M.
For experiment [9], the system named is Na+ channel (site 2). It is filed as binding, rat. The following applies: 1.0E-06 M.
In experiment [10] the target is T5, Kv1.3 (Homo sapiens, UniProt P22001).
T5 construct: expressed in transfected cells
The experiment is described as follows: Ion channel selectivity patch clamp. It is filed as cell-based. Particulars: Voltage (+20 mV). A general note: In patch-clamp work, channel activity is measured electrically.

The target of experiment [11] is μ (MOP) (h) (Homo sapiens, UniProt P35372). The experiment can be described thus: biochemical.
In experiment [12] the target is T6, A1 (h) (Homo sapiens, UniProt P30542).
T6 sequence (P30542 1-326): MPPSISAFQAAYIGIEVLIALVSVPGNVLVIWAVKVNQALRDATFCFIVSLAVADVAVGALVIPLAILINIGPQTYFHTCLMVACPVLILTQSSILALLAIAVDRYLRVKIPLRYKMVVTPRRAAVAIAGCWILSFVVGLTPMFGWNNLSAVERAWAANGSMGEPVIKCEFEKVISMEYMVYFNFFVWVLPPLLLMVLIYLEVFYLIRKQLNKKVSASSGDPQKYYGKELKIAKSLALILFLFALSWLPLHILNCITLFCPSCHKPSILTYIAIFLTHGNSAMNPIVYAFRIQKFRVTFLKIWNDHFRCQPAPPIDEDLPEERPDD
It is filed as binding.

Experiment [13] has as its target T7, COX2 (h) (Homo sapiens, UniProt P35354).
T7 construct: Cerep (contract assay); host or cells: Sf9 cells
T7 sequence (P35354 18-604): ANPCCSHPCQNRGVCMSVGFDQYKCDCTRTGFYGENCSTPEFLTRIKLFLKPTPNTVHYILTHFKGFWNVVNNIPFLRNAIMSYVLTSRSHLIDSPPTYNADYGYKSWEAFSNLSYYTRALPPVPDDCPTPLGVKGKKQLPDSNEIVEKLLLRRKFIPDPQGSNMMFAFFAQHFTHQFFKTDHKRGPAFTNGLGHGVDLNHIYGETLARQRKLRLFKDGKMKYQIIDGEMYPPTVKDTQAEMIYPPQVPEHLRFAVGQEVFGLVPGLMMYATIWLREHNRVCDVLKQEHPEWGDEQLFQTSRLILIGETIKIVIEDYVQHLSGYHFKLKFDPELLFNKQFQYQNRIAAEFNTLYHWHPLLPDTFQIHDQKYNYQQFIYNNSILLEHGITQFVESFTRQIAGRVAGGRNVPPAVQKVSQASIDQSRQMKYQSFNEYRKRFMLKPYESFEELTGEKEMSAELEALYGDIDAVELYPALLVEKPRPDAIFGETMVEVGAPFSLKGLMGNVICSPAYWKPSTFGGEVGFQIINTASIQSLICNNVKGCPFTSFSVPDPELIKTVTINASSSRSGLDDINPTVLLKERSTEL
The experiment can be described thus: enzyme assay. It is filed as biochemical. The following applies: 1.0E-06 M.

Experiment [14] concerns the target T8, phosphatase 1B (h) (PTP1B) (Homo sapiens, UniProt P18031).
T8 construct: host or cells: E. coli
T8 sequence (P18031 1-435): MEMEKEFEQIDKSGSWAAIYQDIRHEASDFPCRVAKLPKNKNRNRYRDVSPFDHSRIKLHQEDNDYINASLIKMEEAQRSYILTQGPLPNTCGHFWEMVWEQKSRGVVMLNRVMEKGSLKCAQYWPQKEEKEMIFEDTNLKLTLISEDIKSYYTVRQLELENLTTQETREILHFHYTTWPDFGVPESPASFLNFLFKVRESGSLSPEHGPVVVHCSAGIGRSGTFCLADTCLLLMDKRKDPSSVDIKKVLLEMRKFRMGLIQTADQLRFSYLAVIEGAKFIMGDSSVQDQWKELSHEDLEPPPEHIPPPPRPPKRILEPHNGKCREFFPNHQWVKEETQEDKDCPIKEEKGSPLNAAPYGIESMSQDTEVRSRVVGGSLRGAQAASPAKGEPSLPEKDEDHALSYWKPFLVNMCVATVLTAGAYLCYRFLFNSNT
The experiment can be described thus: enzyme assay. It is filed as biochemical. Particulars: 1.0E-06 M.

Setting [15] is: 1.0E-06 M, read-out: % Inhibition 1st.

“Also recorded” adds a separate entry of the source. Read-outs that look alike come from different tables or passages of the source.

PDE4D2 (h), sequence (Q08499 303-809 limits assumed): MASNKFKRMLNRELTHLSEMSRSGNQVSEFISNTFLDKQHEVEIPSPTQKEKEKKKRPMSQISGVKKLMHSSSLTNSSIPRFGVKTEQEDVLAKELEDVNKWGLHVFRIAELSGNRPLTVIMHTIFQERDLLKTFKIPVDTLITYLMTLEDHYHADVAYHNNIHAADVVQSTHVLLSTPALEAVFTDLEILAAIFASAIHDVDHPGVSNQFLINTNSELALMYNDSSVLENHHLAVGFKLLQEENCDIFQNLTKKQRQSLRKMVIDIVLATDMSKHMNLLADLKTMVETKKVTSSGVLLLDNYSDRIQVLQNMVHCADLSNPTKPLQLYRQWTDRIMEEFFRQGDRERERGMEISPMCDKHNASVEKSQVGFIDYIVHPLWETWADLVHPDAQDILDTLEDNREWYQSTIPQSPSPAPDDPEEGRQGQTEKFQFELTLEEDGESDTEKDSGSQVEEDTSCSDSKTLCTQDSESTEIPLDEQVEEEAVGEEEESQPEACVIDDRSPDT
μ (MOP) (h), sequence (P35372 whole entry): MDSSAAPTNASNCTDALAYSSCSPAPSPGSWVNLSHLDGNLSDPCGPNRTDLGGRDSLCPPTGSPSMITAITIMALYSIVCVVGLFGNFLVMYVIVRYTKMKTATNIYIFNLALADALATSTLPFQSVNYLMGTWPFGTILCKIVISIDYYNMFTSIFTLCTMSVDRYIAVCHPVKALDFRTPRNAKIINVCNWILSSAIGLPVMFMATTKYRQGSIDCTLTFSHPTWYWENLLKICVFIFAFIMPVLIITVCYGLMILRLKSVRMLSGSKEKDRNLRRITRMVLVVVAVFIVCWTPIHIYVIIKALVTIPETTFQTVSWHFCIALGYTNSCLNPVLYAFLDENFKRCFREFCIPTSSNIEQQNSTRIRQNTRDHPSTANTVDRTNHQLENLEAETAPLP
T4 sequence (P25103 whole entry): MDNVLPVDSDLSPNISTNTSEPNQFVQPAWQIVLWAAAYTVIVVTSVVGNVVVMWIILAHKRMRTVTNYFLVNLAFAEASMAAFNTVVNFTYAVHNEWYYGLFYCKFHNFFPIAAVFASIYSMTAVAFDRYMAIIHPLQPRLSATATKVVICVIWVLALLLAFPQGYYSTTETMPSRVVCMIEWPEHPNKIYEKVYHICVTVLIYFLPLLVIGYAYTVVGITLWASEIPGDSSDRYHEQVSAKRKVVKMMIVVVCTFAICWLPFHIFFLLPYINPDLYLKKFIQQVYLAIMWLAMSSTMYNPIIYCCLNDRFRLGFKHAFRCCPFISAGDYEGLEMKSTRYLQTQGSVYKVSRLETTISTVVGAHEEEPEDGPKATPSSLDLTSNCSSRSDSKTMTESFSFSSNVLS
T2 sequence (O43193 whole entry): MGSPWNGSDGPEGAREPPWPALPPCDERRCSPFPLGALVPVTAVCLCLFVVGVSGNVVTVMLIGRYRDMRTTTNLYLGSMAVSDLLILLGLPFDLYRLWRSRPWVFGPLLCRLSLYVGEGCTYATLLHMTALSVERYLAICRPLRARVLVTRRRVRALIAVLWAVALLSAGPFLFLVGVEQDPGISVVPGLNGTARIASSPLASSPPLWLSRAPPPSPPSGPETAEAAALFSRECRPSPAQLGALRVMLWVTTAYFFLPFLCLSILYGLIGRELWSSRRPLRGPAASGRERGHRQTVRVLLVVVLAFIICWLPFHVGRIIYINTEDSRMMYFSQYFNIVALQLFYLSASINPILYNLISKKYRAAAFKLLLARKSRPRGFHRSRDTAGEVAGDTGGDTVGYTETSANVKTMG
T1 sequence (P04177 whole entry): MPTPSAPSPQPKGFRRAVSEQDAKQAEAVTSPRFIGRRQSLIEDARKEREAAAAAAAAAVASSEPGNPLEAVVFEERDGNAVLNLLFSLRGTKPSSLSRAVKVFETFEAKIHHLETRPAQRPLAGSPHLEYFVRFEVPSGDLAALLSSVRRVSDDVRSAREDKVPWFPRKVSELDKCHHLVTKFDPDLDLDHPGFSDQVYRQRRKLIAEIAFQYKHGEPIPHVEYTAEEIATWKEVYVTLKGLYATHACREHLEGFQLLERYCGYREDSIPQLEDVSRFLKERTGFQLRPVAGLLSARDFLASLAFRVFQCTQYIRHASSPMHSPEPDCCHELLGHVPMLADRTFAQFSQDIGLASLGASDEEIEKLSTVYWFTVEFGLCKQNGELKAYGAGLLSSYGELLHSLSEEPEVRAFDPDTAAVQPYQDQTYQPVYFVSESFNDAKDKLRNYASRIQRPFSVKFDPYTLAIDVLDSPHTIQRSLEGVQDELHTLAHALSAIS
T5 sequence (P22001 whole entry): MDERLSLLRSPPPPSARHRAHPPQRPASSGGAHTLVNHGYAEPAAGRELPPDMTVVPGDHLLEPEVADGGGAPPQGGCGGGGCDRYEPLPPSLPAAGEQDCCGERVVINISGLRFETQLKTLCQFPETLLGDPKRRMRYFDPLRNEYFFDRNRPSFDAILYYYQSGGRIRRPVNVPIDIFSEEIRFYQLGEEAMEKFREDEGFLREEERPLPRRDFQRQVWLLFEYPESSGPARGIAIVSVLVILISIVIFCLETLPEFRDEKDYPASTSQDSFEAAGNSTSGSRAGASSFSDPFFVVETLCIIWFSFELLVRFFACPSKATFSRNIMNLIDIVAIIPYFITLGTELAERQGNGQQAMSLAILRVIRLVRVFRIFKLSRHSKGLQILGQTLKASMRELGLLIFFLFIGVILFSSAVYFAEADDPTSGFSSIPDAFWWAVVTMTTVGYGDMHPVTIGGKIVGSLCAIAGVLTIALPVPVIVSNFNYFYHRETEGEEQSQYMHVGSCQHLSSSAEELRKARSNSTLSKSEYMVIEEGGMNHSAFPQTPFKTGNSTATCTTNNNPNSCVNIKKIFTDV

Consider `Cn1c(=O)n(CCCO)c(=O)c2c1nc(Oc1cccc(Cl)c1)n2Cc1ccc(Cl)cc1` [HC-070], for which, in experiment [1] (read-out: % Inhibition 1st), the inhibition (usually the relative decrease from the control value, in per cent) at 1 µM is -27.2%. In addition, the inhibition at 1 µM in experiment [1] (read-out: % Inhibition Mean) is -23%. In [2], the “CS fear memory in CSD mice” value is “tended to reduce”; the “context fear memory in CSD mice” value is “significantly reduced”; the “freezing in inter-trial intervals between CS presentations, CSD mice” value is recorded as “ameliorated to the level of control mice; also recorded: reduced fear memory in CSD mice”.
Turning to `Cn1c(=O)n(CCCO)c(=O)c2c1nc(Oc1cccc(OC(F)(F)F)c1)n2Cc1ccc(Cl)cc1` [HC-608], the “% Inhibition 1st” value in experiment [3] is listed as 8.8%; in [4] it was -2.1%; in experiment [9], 12%; in experiment [14], -6.7%. Also, the “% Inhibition 2nd” value is -8.6% in experiment [3], -9.2% in [4], -7.3% in [9] and -5.9% in experiment [14]. The “% Inhibition Mean” value in experiment [3] was 0.1%; in [4], -5.6%; in [9], 2.3%; in experiment [14], -6.3%. In addition, the inhibition at 1 µM is -25.4% in experiment [5] (setting [15]); -16.2% in [5] (1.0E-06 M, read-out: % Inhibition 2nd); -20.8% in experiment [5] (read-out: % Inhibition Mean); 13.2% in [6] (read-out: % Inhibition 1st); 3.4% in [6] (read-out: % Inhibition 2nd); 8.3% in [6] (read-out: % Inhibition Mean). Further, the inhibition at 1 µM was -2.6% in [7] (read-out: % Inhibition 1st); -13% in [7] (read-out: % Inhibition 2nd); -7.8% in experiment [7] (read-out: % Inhibition Mean); 1.3% in [8] (read-out: % Inhibition 1st); -2% in experiment [8] (read-out: % Inhibition 2nd); -0.3% in experiment [8] (read-out: % Inhibition Mean). In addition, the inhibition at 1 µM in [11] (read-out: % Inhibition 1st) is 0.1%; in experiment [11] (read-out: % Inhibition 2nd), -6.8%; in [11] (read-out: % Inhibition Mean), -3.3%; in experiment [12] (setting [15]) it was 22.5%; in [12] (1.0E-06 M, read-out: % Inhibition Mean) it was 17.4%; in experiment [12] (read-out: % Inhibition 2nd), 12.3%. For the same compound, the inhibition at 1 µM is -5.6% in [13] (read-out: % Inhibition 1st), 11.8% in [13] (read-out: % Inhibition 2nd) and 3.1% in [13] (read-out: % Inhibition Mean). Also, half-maximal inhibition in experiment [10] (IC50) required 1050 ± 340 nM.
